Data published in patent publication US10774076B2, “Benzazole compounds and methods for making and using the compounds” (Rigel Pharmaceuticals, Inc., priority 2015, dated 2020).

Columns and labels:
[1] = system: IL23-p19; test: Compound screening using DC cells: LPS-induced IL-23 (p19/p40) ELISA in IFNγ-primed dendritic cells differentiated from human PBMC; assay type: cell-based; conditions: Dendritic cell, human PBMC-derived dendritic cells, LPS 1 μg/ml, 18 hours, 10 pt
Summary of the method: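 Dendritic cells were derived from human PBMC over 7 days with GMCSF (100 ng/ml) and IL4 (20 ng/ml), then primed 24 h with 50 ng/ml IFNγ. After 1 h pre-incubation with compound, cells were stimulated with LPS (1 μg/ml final) for 18 h at 37 °C. IL-23 in supernatant measured by p19-capture/p40-detection chemiluminescent ELISA; cytotoxicity checked by CellTiter-Glo.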

[2] = system: IL23p19; test: LPS Induced IL23p19 in THP-1 Cells (with IFNγ Primed) Assay; assay type: cell-based; conditions: Homo sapiens, IFNγ primed (50 ng/mL), LPS 1 ug/mL, 18 hours, 10 pt, read-out: IL23-p19 ELISA, THP1-IFNy, LPS, 10 pt EC50
Summary of the method: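 IFNγ-primed (50 ng/mL, ~18 h) THP-1 cells in RPMI/10% FBS pre-incubated 1 h with serially diluted compound, then stimulated 18 h at 37 °C with 1 ug/mL LPS. Supernatant IL-23p19 quantified by chemiluminescent sandwich ELISA (anti-IL-12 p40/p70 detection); EC50 from curve fit. Toxicity checked by Cell Titer Glo.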

SMILES	EC50 [1] [µM]	EC50 [2] [µM]
COCCN(C)c1nc2cc(N3CCCCC3)c(NC(=O)c3ccc(-c4cn[nH]c4)o3)cc2o1 [Compound I-50, N-(2-((2-methoxyethyl)(methyl)amino)-5-(piperidin-1-yl)benzo[d]oxazol-6-yl)-5-(1H-pyrazol-4-yl)furan-2-carboxamide]	0.0757	0.133
O=C(Nc1cc2oc(N3CCOCC3)nc2cc1N1CCC(F)(F)CC1)c1csc(-c2cn[nH]c2)n1 [Compound I-29, N-(5-(4,4-difluoropiperidin-1-yl)-2-morpholinobenzo[d]oxazol-6-yl)-2-(1H-pyrazol-4-yl)thiazole-4-carboxamide]	0.106	0.302
Nc1ccc(-c2ccc(C(=O)Nc3cc4oc(N5CCOCC5)nc4cc3N3CCCCC3)o2)cn1 [Compound I-1, 5-(6-aminopyridin-3-yl)-N-(2-morpholino-5-(piperidin-1-yl)benzo[d]oxazol-6-yl)furan-2-carboxamide]	4.73	0.898
O=C(Nc1cc2oc(N3CCOCC3)nc2cc1N1CCOCC1)c1csc(-c2cn[nH]c2)n1 [Compound I-49, N-(2,5-dimorpholinobenzo[d]oxazol-6-yl)-2-(1H-pyrazol-4-yl)thiazole-4-carboxamide]	0.0481	0.0504
Cc1cc(-c2nc(C(=O)Nc3cc4oc(N5CCN(C)CC5)nc4cc3N3CCCCC3)cs2)ccn1 [Compound I-22, N-(2-(4-methylpiperazin-1-yl)-5-(piperidin-1-yl)benzo[d]oxazol-6-yl)-2-(2-methylpyridin-4-yl)thiazole-4-carboxamide]	3.18	0.677
